The values that follow come from patent publication US6624149B2, “Method for nucleic acid transfection of cells” (Genteric, Inc., priority 2000, dated 2003).

Holding throughout (assay type): in vivo
One assay deals with mouse lung. In words: Intra-tracheal transfection of mouse lung, luciferase assay. Conditions: 3.6 mM zinc chloride. Here is the method:
Male BALB/c mice (specific pathogen free, Charles River Laboratories; 20-21 g) were used in the transfection experiments. Anesthesia was provided for all invasive procedures; animals were terminated by intraperitoneal administration of pentobarbital according to standard protocols. Neck dissections were performed on anesthetized mice using a one centimeter incision through the skin of the anterior neck. […] For comparison, a free nucleic acid solution (150 μl containing 512 μg of DNA) was prepared in sterile water and delivered in a similar manner. After injection, the point of incision was repaired using staples. The mice were terminated within 48 hours after treatment. […] An experiment was conducted to determine if transition metals promote in vivo transfection of the mouse lung. […] The final zinc chloride concentration of this mixture was 3.6 mM. […] For comparison, 150 μl of a DNA solution (354 μg DNA) was also administered to intratracheally to the lungs of four mice. At 48 hours post administration, the tracheal/lung block was dissected and assayed for luciferase specific activity as described above.

A further assay has as its system rat submandibular gland. In words: Cationic liposome-mediated hGH gene delivery to rat submandibular gland. Details: human growth hormone protein expression, Trial 1 to Trial 8: unit not given here. Conditions: for human growth hormone protein expression, Average / human growth hormone protein expression, Trial 1 to Trial 8: one week post-administration; for human growth hormone protein expression, Trial 1 to Trial 8: individual glands, DOHBD:DOPE liposome, 175 micrograms pCMV.FOX.hGH per gland, listed as Zn. As for the experimental part:
In embodiments in which a liposome/transition metal/nucleic acid mixture was used, 200 μl of the liposome/transition metal/nucleic acid mixture was injected, infused, instilled or administered at the ductal orifice or directly into the duct at any point along its length. See Goldfine, Nature Biotechnology 15:1378, 1997. The liposome/transition metal/nucleic acid mixture was prepared by sequentially adding an appropriate amount of sterile water, liposome solution (3:1, N,N,N′,N′-tetramethyl-N,N′-bis(2-hydroxyethyl)-2,3-bis(9(z)-octadecenoyloxy)-1,4-butanediaminium iodide (DOHBD):DOPE), transition metal enhancer, and the plasmid DNA pCMV.FOX.hGH to a polypropylene tube.
Regardless of whether a liposome/transition metal/nucleic acid mixture or a nucleic acid/transition metal enhancer mixture was delivered, the tubing and mixture was kept in place for ten additional minutes after application of the mixture prior to removal. At 48 hours post atropine administration, the rats were anesthetized by intraperitoneal injection of pentobarbital (50 mg/kg). The right and left submandibular glands were surgically removed, and the tissues were assayed for any observable reporter gene (luciferase of hGH) expression using the methods described below.
In one embodiment, an appropriate mass of cationic lipid and the neutral lipid dioleoylphosphatidylethanolamine (DOPE) was added as solutions in chloroform to 1.9 mL sample vials to yield the desired molar ratio of cationic lipid:DOPE. The chloroform was removed via rotary evaporation at 37° C. The resulting thin lipid films were placed under vacuum overnight to insure that all traces of solvent have been removed. The lipid mixture was resuspended in 1 mL sterile water at 25° C. until the film is hydrated, and then vortex mixed to afford an emulsion. For the in vitro experiments, these emulsions were formulated as a cationic lipid concentration of 1 mM. For the in vivo experiments, the emulsions were formulated at a cationic lipid concentration of 3 mM.
To perform this study, cationic lipid/nucleic acid/zinc mixtures were prepared by mixing the appropriate amount of sterile water, cationic liposomes, zinc chloride and pCMV.FOX.hGH plasmid DNA in a polystyrene tube. Specifically, 40 microliters of a 3 mM 3:1 DOHBD:DOPE liposome mixture, 270 microliters of a 8.08 microgram/microliter pCMV.FOX.hGH plasmid DNA mixture, and an appropriate amount of a 70 mM zinc chloride mixture were added to a polystyrene tube containing a sufficient amount of water to give a final total volume of 2500 microliters. In this experiment, the final zinc chloride concentration was either 0.125 mM, 0.250 mM, or no zinc at all. The cationic lipid:DNA phosphate ratio in this study remained constant for all mixtures screened. Once prepared, 200 microliters of each mixture was instilled into the right and left submandibular glands of four male Sprague-Dawley rats. Thus, 175 micrograms of the plasmid DNA was instilled into each gland. After one week post-administration of the cationic lipid/nucleic acid/zinc mixtures, the salivary gland of the rats were extracted, mixed with a phosphate lysis buffer (10 mM, pH 8.0) and homogenized. The homogenate was then assayed for human growth hormone protein expression. […]

A further assay concerns rat pancreas. Nature of the assay: Intraductal transfection of rat pancreas, luciferase assay. The conditions noted are these: 64 μg pCMV.FOX.Luc-2 in 100 μL into bile duct, 48 hours, four trials; ZnCl2 absent or 1.8 mM. Here is the method: Male Sprague-Dawley rats (weighing 260-280 g) were fasted the night prior to treatment. Care was taken to ensure that this procedure was conducted under sterile conditions. After anesthesia (see above) and laparotomy, the distal end of the bile duct (at the level of the duodenum) was ligated, the proximal end of the pancreas (at the porta hepatis level) was temporary blocked by a ligature, a PE-10 tubing was inserted through an incision of the bile duct near the duodenum. 0.1 ml of the selected nucleic acid/transition metal enhancer mixture was injected in a retrograde manner into the duct. Successful injection was confirmed by visible swelling of the gland. For administration to the liver, the proximal portion of the bile duct (prior to its entry into pancreatic tissue) was injected. After DNA delivery, a by-pass operation was done by directly introducing the bile flow to duodenum through the exterior end of the PE-10 tubing. After carefully ensuring the ligatures were secure, 1 ml of ampicillin (15 mg/ml) was injected into the peritoneal cavity and the incision was closed in one layer, combining fascia and skin with 3-0 silk suture. The closed incision was washed with dilute ethanol and the animal was monitored under a heat lamp until it was fully awake and ambulatory. The […] were terminated 48 hours after treatment. […]

“And” between values parts separate entries of the source, which are not always exact repeats. Equal entries are not always repeated.

Turning to `[Cl-].[Cl-].[Zn+2]` [ZnCl2, zinc chloride], the “Improvement of transfection activity relative to the "free" DNA solution” value in the assay on mouse lung is listed as 5 fold. For the same compound, the “human growth hormone protein expression, Average” value in the assay on rat submandibular gland ([Zn] 0.125 mM) was 505.6361; with rat submandibular gland ([Zn] 0.25 mM), 464.7687. Also, the “human growth hormone protein expression, Trial 1 to Trial 8” value in the assay on rat submandibular gland ([Zn] 0.125 mM) is 452.1 and 360.8 and 261.7 and 355.7 and 517.2 and 575.6 and 943.5 and 1084; in the assay with rat submandibular gland ([Zn] 0.25 mM) it was 857.731 and 753.3 and 272.6 and 315.3 and 604.3 and 449.9. Besides, in the assay on rat submandibular gland (rat submandibular gland), the “enhancement of in vivo transfection compared to cationic liposome/nucleic acid mixture not containing zinc” value is on record as “at least two”. For the same compound, the average luciferase activity in the assay with rat pancreas is 22028 relative luciferase light units per 10 mg of pancreatic tissue.
